Test system: NOX activity
Assay: Amplex Red measurement of extracellular hydrogen peroxide (NOX activity) using DMSO-differentiated HL60 cells
Assay type: cell-based, human
Settings: Amplex red, DMSO-differentiated HL60 cells; compound concentration not stated
Experimental: Human acute myeloid leukemia cell line HL-60 was cultured in RPMI 1640 (Invitrogen) supplemented with 10% heat-inactivated calf serum, 2 mM glutamine, 100 U/mL penicillin (Sigma), and 100 μg streptomycin (Sigma) at 37° C. under a humidified atmosphere of 5% CO2. HL60 differentiation to the neutrophil phenotype was triggered by adding Me2SO (final concentration 1.25% v/v for 6 days) to the culture medium.
Extracellular hydrogen peroxide was measured using Amplex UltraRed (Molecular Probes). Cells were trypsinized (1× Trypsin-EDTA), collected by centrifugation, and resuspended in HBSS supplemented with 1% glucose. Cells were seeded into black 96-well plates at a density of 50′000 cells in 200 μl testing buffer (HBSS 1% glucose containing 0.005 U/mL horseradish peroxidase (Roche) and 50 μM Amplex Red in the presence or absence of compounds according to the invention. As a control, DPI was included at a final concentration of 10 μM The plates were placed in the fluorescent Optima Fluorescent plate reader and kept at 37° C. during 20 min Fluorescence was measured for […] with excitation and emission wavelengths of 544 nm and 590 nm respectively. NOX activities were expressed as % of the activity in control cells. Residual activity of DPI-treated cells was usually <10%.
The Table 2 below summarizes the percentage of inhibition of NOX activity as measured by Amplex red using DMSO-differentiated HL60 cells as described above: […]

Compound	Inhibition (%) of NOX activity [%]
Cn1c(COc2ccc(Cl)cc2)c2c(=O)n(-c3ccccc3Cl)[nH]c2cc1=O [Compound 92, 4-[(4-chlorophenoxy)methyl]-2-(2-chlorophenyl)-5-methyl-1H-pyrazolo[4,3-c] pyridine-3,6(2H,5H)-dione]	76
CN(Cc1c2c(=O)n(-c3ccccc3Cl)[nH]c2cc(=O)n1CCc1ccccn1)c1ccccc1 [Compound 93, 2-(2-chlorophenyl)-4-{[methyl(phenyl)amino]methyl}-5-(2-pyri-din-2-ylethyl)-1H-pyrazolo[4,3-c] pyridine-3,6(2H,5H)-dione]	80
COCc1c2c(=O)n(-c3cccc(Cl)c3)[nH]c2cc(=O)n1Cc1ccccn1 [Compound 23, 2-(3-chlorophenyl)-4-(methoxymethyl)-5-(pyridin-2-ylmethyl)-1H-pyrazolo[4,3-c]pyridine-3,6(2H,5H)-dione]	89
CC(C)(C)OC(=O)N1CCC(Cn2c(COCc3ccccc3)c3c(=O)n(-c4ccccc4Cl)[nH]c3cc2=O)CC1 [Compound 100, tert-butyl 4-({4-[(benzyloxy)methyl]-2-(2-chlorophenyl)-3,6-dioxo-1,2,3,6-tetrahydro-5H-pyrazolo[4,3-c]pyri-din-5-yl}methyl)pipe-ridine-1-carboxylate]	78
Cn1[nH]c2cc(=O)n(Cc3cccc(N4CCOCC4)n3)c(COc3ccc(F)cc3)c2c1=O [Compound 65, 4-[(4-fluorophenoxy)methyl]-2-methyl-5-[(6-morpholin-4-ylpyridin-2-yl)methyl]-1H-pyrazolo[4,3-c] pyridine-3,6(2H,5H)-dione]	80
COc1cccc(N2CCN(Cc3c4c(=O)n(-c5ccccc5Cl)[nH]c4cc(=O)n3C)CC2)c1 [Compound 163, 2-(2-chlorophenyl)-4-{[4-(3-methoxyphenyl)piperazin-1-yl]methyl}-5-methyl-1H-pyrazolo[4,3-c]pyridine-3,6(2H,5H)-dione]	80
Cn1c(COCc2cccc(Cl)c2)c2c(=O)n(-c3ccccc3Cl)[nH]c2cc1=O [Compound 139, 4-{[(3-chlorobenzyl)oxy]methyl}-2-(2-chlorophenyl)-5-methyl-1H-pyrazolo[4,3-c] pyridine-3,6(2H,5H)-dione]	76
Cn1c(CCCN2CCc3ccccc32)c2c(=O)n(-c3ccccc3Cl)[nH]c2cc1=O [Compound 123, 2-(2-chloro-phenyl)-4-[3-(2,3-dihydro-1H-indol-1-yl)propyl]-5-methyl-1H-pyrazolo[4,3-c] pyridine-3,6(2H,5H)-dione]	90
CCCCc1c2c(=O)n(-c3ccc(F)cc3Cl)[nH]c2cc(=O)n1CCc1ccccn1 [Compound 10, 4-butyl-2-(2-chloro-4-fluorophenyl)-5-(2-pyridin-2-ylethyl)-1H-pyrazolo[4,3-c]pyridine-3,6(2H,5H)-dione]	78
CCCCc1c2c(=O)n(-c3ccc(F)cc3Cl)[nH]c2cc(=O)n1Cc1ccco1 [Compound 7, 4-butyl-2-(2-chloro-4-fluorophenyl)-5-(furan-2-ylmethyl)-1H-pyrazolo[4,3-c]pyridine-3,6(2H,5H)-dione]	91
CCCCc1c2c(=O)n(-c3ccc(OCc4ccccc4)cc3)[nH]c2cc(=O)n1Cc1ccc(Cl)cc1 [Compound 4, 2-[4-(benzyloxy)phenyl]-4-butyl-5-(4-chlorobenzyl)-1H-pyrazolo[4,3-c]pyridine-3,6(2H,5H)-dione]	69
CN(CCCc1c2c(=O)n(-c3ccccc3Cl)[nH]c2cc(=O)n1C)c1ccccc1 [Compound 120, 2-(2-chlorophenyl)-5-methyl-4-{3-[methyl (phenyl)amino]propyl}-1H-pyrazolo[4,3-c] pyridine-3,6(2H,5H)-dione]	77
COc1cccc(CN(C)Cc2c3c(=O)n(-c4ccccc4Cl)[nH]c3cc(=O)n2C)c1 [Compound 143, 2-(2-chlorophenyl)-4-{[(3-methoxybenzyl) (methyl)amino]methyl}-5-methyl-1H-pyrazolo [4,3-c]pyridine-3,6 (2H,5H)-dione]	82
COCCn1c(CN2CCCC2)c2c(=O)n(Cc3ccccc3)[nH]c2cc1=O [Compound 31, 2-benzyl-5-(2-methoxyethyl)-4-(pyrrolidin-1-ylmethyl)-1H-pyrazolo [4,3-c]pyridine-3,6(2H,5H)-dione]	82
O=c1c2c(CN3CCOCC3)n(Cc3ccccc3)c(=O)cc2[nH]n1-c1ccccc1Cl [Compound 1, 5-benzyl-2-(2-chlorophenyl)-4-(morpholin-4-ylmethyl)-1H-pyrazolo[4,3-c]pyridine-3,6(2H,5H)-dione]	80
CCOCCCn1c(CN2CCCC2)c2c(=O)n(Cc3ccccc3)[nH]c2cc1=O [Compound 47, 2-benzyl-5-(3-ethoxypropyl)-4-(pyrrolidin-1-ylmethyl)-1H-pyrazolo[4,3-c]pyridine-3,6(2H,5H)-dione]	89
CCCCc1c2c(=O)n(-c3ccc(F)cc3Cl)[nH]c2cc(=O)n1Cc1ccccc1CN1CCOCC1 [Compound 14, 4-butyl-2-(2-chloro-4-fluorophenyl)-5-[2-(morpholin-4-ylmethyl)benzyl]-1H-pyrazolo[4,3-c]pyridine-3,6(2H,5H)-dione]	86
Cn1[nH]c2cc(=O)n(Cc3ccccn3)c(COCc3ccccc3)c2c1=O [Compound 63, 4-[(benzyloxy)methyl]-2-methyl-5-(pyridin-2-ylmethyl)-1H-pyrazolo [4,3-c]pyridine-3,6 (2H,5H)-dione]	89
CN1CCC(Cn2c(COCc3ccccc3)c3c(=O)n(-c4ccccc4Cl)[nH]c3cc2=O)CC1 [Compound 106, 4-[(benzyloxy)methyl]-2-(2-chlorophenyl)-5-[(1-methylpiperidin-4-yl)methyl]-1H-pyrazolo [4,3-c]pyridine-3,6(2H,5H)-dione]	81
CCCCc1c2c(=O)n(C)[nH]c2cc(=O)n1Cc1ccccn1 [Compound 3, 4-butyl-2-methyl-5-(pyridin-2-ylmethyl)-1H-pyrazolo[4,3-c]pyridine-3,6(2H,5H)-dione]	84
CCCCc1c2c(=O)n(-c3ccc(OCc4ccccc4)cc3)[nH]c2cc(=O)n1C [Compound 5, 2-[4-(benzyloxy)phenyl]-4-butyl-5-methyl-1H-pyrazolo[4,3-c]pyridine-3,6(2H,5H)-dione]	94
Cn1[nH]c2cc(=O)n(Cc3ccccn3)c(CCCOc3ccccc3)c2c1=O [Compound 30, 2-methyl-4-(3-phenoxypropyl)-5-(pyridin-2-ylmethyl)-1H-pyrazolo [4,3-c]pyridine-3,6(2H,5H)-dione]	92
COCCCn1c(CN(C)Cc2ccccc2)c2c(=O)n(-c3ccc(F)cc3Cl)[nH]c2cc1=O [Compound 12, 4-{[benzyl(methyl)amino]methyl}-2-(2-chloro-4-fluorophenyl)-5-(3-methoxypropyl)-1H-pyrazolo[4,3-c]pyridine-3,6(2H,5H)-dione]	79
Cn1c(COC(c2ccccc2)C(F)(F)F)c2c(=O)n(-c3ccccc3Cl)[nH]c2cc1=O (stereo not shown) [Compound 108, 2-(2-chlorophenyl)-5-methyl-4-[(2,2,2-trifluoro-1-phenylethoxy)methyl]-1H-pyrazolo[4,3-c] pyridine-3,6(2H,5H)-dione]	75
CCOCCCn1c(CN2CCCC2)c2c(=O)n(-c3ccc(F)cc3Cl)[nH]c2cc1=O [Compound 45, 2-(2-chloro-4-fluoro-phenyl)-5-(3-ethoxypropyl)-4-(pyrrolidin-1-ylmethyl)-1H-pyrazolo[4,3-c] pyridine-3,6(2H,5H)-dione]	86
COCCn1c(COc2ccc(F)cc2)c2c(=O)n(-c3ccccc3Cl)[nH]c2cc1=O [Compound 58, 2-(2-chlorophenyl)-4-[(4-fluorophenoxy)methyl]-5-(2-methoxyethyl)-1H-pyrazolo[4,3-c]pyridine-3,6(2H,5H)-dione]	80
CN(C)C(=O)Cn1c(COCc2ccccc2)c2c(=O)n(-c3ccccc3Cl)[nH]c2cc1=O [Compound 116, 2-{4-[(benzyloxy)methyl]-2-(2-chlorophenyl)-3,6-dioxo-1,2,3,6-tetrahydro-5H-pyrazolo[4,3-c]pyridin-5-yl)-N,N dimethyl acetamide]	81
Cn1c(C2CN(Cc3ccccc3)CCO2)c2c(=O)n(-c3ccccc3Cl)[nH]c2cc1=O (stereo not shown) [Compound 84, 4-(4-benzylmorpholin-2-yl)-2-(2-chloro-phenyl)-5-methyl-1H-pyrazolo [4,3-c]pyridine-3,6 (2H,5H)-dione]	78

Reference: patent US8455485B2, “Pyrazolo pyridine derivatives as NADPH oxidase inhibitors” (Genkyotex SA, priority 2008, dated 2013)
